In article PMC5797642 (Frontiers in Molecular Neuroscience, 2018):

What was measured:
[1] = target: T1, Kv12.1 (Elk1) (Homo sapiens, UniProt Q96L42); experiment: whole-cell patch clamp, steady-state outward current at […] mV; assay type: cell-based; details: activator, pH 7.4, CHO cells, room temperature
T1 construct: gene KCNH8; full-length channel from pcDNA3.1-IRES-eGFP, transient expression in CHO dhFR- cells
T1 sequence (Q96L42 1-1107): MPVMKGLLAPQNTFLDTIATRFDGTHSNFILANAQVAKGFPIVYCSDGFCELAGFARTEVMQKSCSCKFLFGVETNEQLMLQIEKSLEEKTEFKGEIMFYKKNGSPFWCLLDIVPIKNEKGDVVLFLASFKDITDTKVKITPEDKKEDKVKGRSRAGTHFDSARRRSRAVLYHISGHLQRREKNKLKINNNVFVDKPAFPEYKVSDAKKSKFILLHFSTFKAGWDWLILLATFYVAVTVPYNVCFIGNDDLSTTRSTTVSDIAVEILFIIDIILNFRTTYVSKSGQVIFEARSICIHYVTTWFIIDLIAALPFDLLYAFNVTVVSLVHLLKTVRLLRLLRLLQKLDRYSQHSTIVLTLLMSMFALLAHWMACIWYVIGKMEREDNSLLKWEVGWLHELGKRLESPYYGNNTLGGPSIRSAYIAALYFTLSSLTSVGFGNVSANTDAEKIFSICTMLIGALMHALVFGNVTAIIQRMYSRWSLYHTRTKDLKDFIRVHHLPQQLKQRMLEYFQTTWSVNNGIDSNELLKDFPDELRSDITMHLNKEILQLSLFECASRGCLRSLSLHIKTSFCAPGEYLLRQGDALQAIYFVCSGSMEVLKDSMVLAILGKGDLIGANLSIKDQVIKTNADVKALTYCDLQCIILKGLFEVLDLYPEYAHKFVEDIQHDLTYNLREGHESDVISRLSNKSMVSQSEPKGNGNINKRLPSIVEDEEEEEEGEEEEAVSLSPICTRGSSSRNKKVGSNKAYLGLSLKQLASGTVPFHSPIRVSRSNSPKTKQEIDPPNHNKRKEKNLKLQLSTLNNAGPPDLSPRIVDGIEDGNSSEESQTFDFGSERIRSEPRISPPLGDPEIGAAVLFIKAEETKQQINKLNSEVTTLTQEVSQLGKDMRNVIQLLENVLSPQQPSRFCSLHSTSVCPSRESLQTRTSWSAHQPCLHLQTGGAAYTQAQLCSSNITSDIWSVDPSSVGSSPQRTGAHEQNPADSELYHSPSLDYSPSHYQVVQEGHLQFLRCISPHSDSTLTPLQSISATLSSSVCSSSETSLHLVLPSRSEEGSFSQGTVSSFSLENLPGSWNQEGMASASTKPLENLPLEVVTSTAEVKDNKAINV

[2] = target: T1, Kv12.1 (Elk1); experiment: whole-cell patch clamp; assay type: cell-based; details: weak inhibitor; 100 mM; n = 9; CHO cells, room temperature

| Compound | % potentiation at 3 mM [1] | I100mM TEA/IStart [2] |
| --- | --- | --- |
| Nc1cccnc1 [3-AP, 3-aminopyridine] | ~ 7% |  |
| CC[N+](CC)(CC)CC [TEA, tetraethylammonium] |  | 0.83 ± 0.01 |
